The nature of the data set: dissolution release of hard shell capsule formulations, USP Basket Method (Apparatus 1).

Take `CC[C@H](C)C(=O)O[C@H]1C[C@@H](C)C=C2C=C[C@H](C)[C@H](CC[C@@H]3C[C@@H](O)CC(=O)O3)[C@H]21` [lovastatin]: the “time in which lovastatin was completely released (in vitro release, FIG. 2)” value (Precirol ATO5 capsule systems containing the fast hydrating Methocel polymers, water with 1% sodium dodecyl sulfate, 37° C., 100 RPM) was determined as 4 h. Also, the “period over which sustained release of lovastatin was obtained (in vitro release, FIG. 2)” value (Precirol ATO5 capsule systems containing the non-hydrating Ethocel, water with 1% sodium dodecyl sulfate, 37° C., 100 RPM) is 24 h. Besides, under “lovastatin, Compritol 888 capsule system, fastest hydrating polymers gave faster release”, the “rank order of release rate by cellulose polymer (FIG. 1)” value is on record as “Methocel K>Methocel E>Ethocel”. Besides, the “release of lovastatin by type of cellulosic polymer, compritol formulation” value (lovastatin, compritol, Methocel K100M vs Ethocel P20) is given as “released considerably faster from a formulation of Methocel K100M than Ethocel P20”. For the same molecule, for the setting “lovastatin/precirol, Methocel K100M vs Ethocel P20”, the “release of lovastatin by type of cellulosic polymer, precirol formulation” value was “faster when the formulation contains Methocel K100M than Ethocel P20”. Besides, the “release of lovastatin by type of high melting fatty acid ester” value (same cellulose (methocel) component, prolonged period of about 24 hours) was “fastest with Precirol AT05, slowest with Compritol 888”.

Source of the values: patent publication US6596308B2, “Controlled release pharmaceutical composition” (Kos Pharmaceuticals, Incorporated, priority 2001, dated 2003).
